Read-outs that look alike come from different tables or passages of the source.
Tests used:
Type in all cases: cell-based
[1] = tested on: SKBr3 (estrogen receptor negative, Her2 over-expressing breast cancer cells); experiment: Anti-proliferation assay (MTS/PMS, 72 h), SKBr3
[2] = tested on: SKBr3 and MCF-7 cell lines; experiment: Anti-proliferative activity against both breast cancer cell lines (results in words); details: for anti-proliferative activity (in words): SKBr3 and MCF-7, Tables 1-5
Experimental: Cells were maintained in a 1:1 mixture of Advanced DMEM/F12 (Gibco) supplemented with non-essential amino acids, L-glutamine (2 mM), streptomycin (500 μg/mL), penicillin (100 units/mL), and 10% FBS. Cells were grown to confluence in a humidified atmosphere (37° C., 5% CO2), seeded (2000/well, 100 μL) in 96-well plates, and allowed to attach overnight. Compound at varying concentrations in DMSO (1% DMSO final concentration) was added, and cells were returned to the incubator for 72 h. At 72 h, the number of viable cells was determined using an MTS/PMS cell proliferation kit (Promega) per the manufacturer's instructions. Cells incubated in 1% DMSO were used at 100% proliferation, and values were adjusted accordingly. IC50 values were calculated from separate experiments performed in triplicate using GraphPad Prism.
The anti-proliferative activity of these compounds is evaluated against two breast cancer cell lines, SKBr3 (estrogen receptor negative, Her2 over-expressing breast cancer cells) and MCF-7 (estrogen receptor positive breast cancer cells).

[3] = tested on: MCF-7 (estrogen receptor positive breast cancer cells); experiment: Anti-proliferation assay (MTS/PMS, 72 h), MCF-7
[4] = Homo sapiens, SK-BR-3, Table 1, modified benzamide coumarin derivatives, read-out: SKBr3
[5] = Homo sapiens, MCF7, Table 1, modified benzamide coumarin derivatives, read-out: MCF-7
[6] = Homo sapiens, SK-BR-3, amide versus urea linkage, read-out: IC50 for SKBr3
[7] = Homo sapiens, MCF7, amide versus urea linkage, read-out: IC50 for MCF-3
[8] = Homo sapiens, SK-BR-3, Table 2, modified benzamide and biphenylamide derivatives (in μM), read-out: SKBr3
[9] = Homo sapiens, MCF7, Table 2, modified benzamide and biphenylamide derivatives (in μM), read-out: MCF-7
[10] = Table 4, alkylamino analogues, read-out: SKBr3
[11] = Table 4, alkylamino analogues, read-out: MCF-7
[12] = Table 5, alkylether derivatives with cyclic N-substitutions, read-out: SKBr3
[13] = Table 5, alkylether derivatives with cyclic N-substitutions, read-out: MCF-7
[14] = Homo sapiens, SK-BR-3, Table 5, alkylether derivatives with cyclic N-substitutions, read-out: SKBr3
[15] = Homo sapiens, MCF7, Table 5, alkylether derivatives with cyclic N-substitutions, read-out: MCF-7

| Compound | IC50 [1, 4] [µM] | anti-proliferative activity (in words) [2] | IC50 [3, 5] [µM] | further results |
| --- | --- | --- | --- | --- |
| Cc1c(OC2CCN(C)CC2)ccc2cc(NC(=O)c3ccc(O)c(CCC(C)C)c3)c(=O)oc12 [Compound 19, 4-hydroxy-3-isopentyl-N-(8-methyl-7-(1-methylpiperidin-4-yloxy)-2-oxo-2H-chromen-3-yl)benzamide] | 0.6 ± 0.01 | no effect on inhibitory activity | 1.25 ± 0.39 | – |
| Cc1c(OC2CCN(C)CC2)ccc2cc(NC(=O)c3ccc4c(c3)CCC(C)(C)O4)c(=O)oc12 [Compound 20, 2,2-dimethyl-N-(8-methyl-7-(1-methylpiperidin-4-yloxy)-2-oxo-2H-chromen-3-yl)chroman-6-carboxamide] | 3.46 ± 0.02 | decreased anti-proliferative activities | 5.01 ± 0.01 | – |
| C=CCc1cc(C(=O)Nc2cc3ccc(OC4CCN(C)CC4)c(C)c3oc2=O)ccc1OC(C)=O [Compound 21a, 2-allyl-4-((8-methyl-7-((1-methylpiperidin-4-yl)oxy)-2-oxo-2H-chromen-3-yl)carbamoyl)phenyl acetate] | 2.26 ± 0.12 | decreased anti-proliferative activities | 2 ± 0.18 | – |
| CC(=O)Oc1ccc(C(=O)Nc2cc3ccc(OC4CCN(C)CC4)c(C)c3oc2=O)cc1 [Compound 21b, 4-(8-methyl-7-(1-methylpiperidin-4-yloxy)-2-oxo-2H-chromen-3-ylcarbamoyl)phenyl acetate] | 1.67 ± 0.2 | decreased anti-proliferative activities | 1.62 ± 0.04 | – |
| CC(C)=CCc1cccc(C(=O)Nc2cc3ccc(OC4CCN(C)CC4)c(C)c3oc2=O)c1 [Compound 21c, N-(8-methyl-7-((1-methylpiperidin-4-yl)oxy)-2-oxo-2H-chromen-3-yl)-3-(3-methylbut-2-en-1-yl)benzamide] | 1.68 ± 0.12 | two-fold lower activity | 2.1 ± 0.08 | – |
| Cc1c(OC2CCN(C)CC2)ccc2cc(NC(=O)c3ccccc3)c(=O)oc12 [Compound 21d, N-(8-methyl-7-(1-methylpiperidin-4-yloxy)-2-oxo-2H-chromen-3-yl)benzamide] | 11.5 ± 2 | significantly decreased activity | 11.7 ± 1 | IC50 [1, 6]: 11.5 µM; IC50 [3, 7]: 11.7 µM |
| CC(=O)Oc1ccc(C(=O)Nc2cc3ccc(OC4CCN(C)CC4)c(C)c3oc2=O)cc1Cl [Compound 21e, 2-chloro-4-(8-methyl-7-(1-methylpiperidin-4-yloxy)-2-oxo-2H-chromen-3-ylcarbamoyl)phenyl acetate] | 3.5 ± 0.01 | diminished activity | 1.61 ± 0.16 | – |
| C=CCc1cc(C(=O)Nc2cc3ccc(OC4CCN(C)CC4)c(C)c3oc2=O)ccc1O [Compound 22a, 3-allyl-4-hydroxy-N-(8-methyl-7-((1-methylpiperidin-4-yl)oxy)-2-oxo-2H-chromen-3-yl)benzamide] | 2.43 ± 0.04 | decreased anti-proliferative activities | 2.17 ± 0.11 | – |
| Cc1c(OC2CCN(C)CC2)ccc2cc(NC(=O)c3ccc(O)cc3)c(=O)oc12 [Compound 22b, 4-hydroxy-N-(8-methyl-7-(1-methylpiperidin-4-yloxy)-2-oxo-2H-chromen-3-yl)benzamide] | 0.84 ± 0.18 | decreased anti-proliferative activities | 1.43 ± 0.08 | – |
| Cc1c(OC2CCN(C)CC2)ccc2cc(NC(=O)c3ccc(O)c(Cl)c3)c(=O)oc12 [Compound 22e, 3-chloro-4-hydroxy-N-(8-methyl-7-(1-methylpiperidin-4-yloxy)-2-oxo-2H-chromen-3-yl)benzamide] | 2.3 ± 0.57 | diminished activity | 1.48 ± 0.14 | – |
| COc1cccc(-c2cc(C(=O)Nc3cc4ccc(OC5CCN(C)CC5)c(C)c4oc3=O)ccc2OC(C)=O)c1 [Compound 32a, 3′-methoxy-5-(8-methyl-7-(1-methylpiperidin-4-yloxy)-2-oxo-2H-chromen-3-ylcarbamoyl)biphenyl-2-yl acetate] | – | maintains inhibitory activity | – | IC50 [1, 8]: 0.92 ± 0.06 µM; IC50 [3, 9]: 0.91 µM |
| COc1ccc(C(=O)Nc2cc3ccc(OC4CCN(C)CC4)c(C)c3oc2=O)cc1-c1cccc(OC(C)=O)c1 [Compound 32b, 2′-methoxy-5′-(8-methyl-7-(1-methylpiperidin-4-yloxy)-2-oxo-2H-chromen-3-ylcarbamoyl)biphenyl-3-yl acetate] | – | increases activity almost three-fold | – | IC50 [1, 8]: 0.29 ± 0.01 µM; IC50 [3, 9]: 0.36 ± 0.06 µM |
| COc1cccc(-c2cc(C(=O)Nc3cc4ccc(OC5CCN(C)CC5)c(C)c4oc3=O)ccc2O)c1 [Compound 33a, 6-hydroxy-3′-methoxy-N-(8-methyl-7-(1-methylpiperidin-4-yloxy)-2-oxo-2H-chromen-3-yl)biphenyl-3-carboxamide] | – | maintains inhibitory activity | – | IC50 [1, 8]: 0.86 ± 0.16 µM; IC50 [3, 9]: 0.81 ± 0.14 µM |
| COc1ccc(C(=O)Nc2cc3ccc(OC4CCN(C)CC4)c(C)c3oc2=O)cc1-c1cccc(O)c1 [Compound 33b, 3′-hydroxy-6-methoxy-N-(8-methyl-7-(1-methylpiperidin-4-yloxy)-2-oxo-2H-chromen-3-yl)biphenyl-3-carboxamide] | – | increases activity almost three-fold | – | IC50 [1, 8]: 0.31 ± 0.04 µM; IC50 [3, 9]: 0.38 ± 0.08 µM |
| CCCN(CCC)CCCOc1ccc2cc(NC(=O)c3ccc(O)c(CC=C(C)C)c3)c(=O)oc2c1C [Compound 68e, N-(7-(3-(dipropylamino)propoxy)-8-methyl-2-oxo-2H-chromen-3-yl)-4-hydroxy-3-(3-methylbut-2-en-1-yl)benzamide] | – | did not show any activity at the highest concentration | – | IC50 ([1]; Homo sapiens, SK-BR-3, Table 4, alkylamino analogues, read-out: SKBr3): > 50 µM; IC50 ([3]; Homo sapiens, MCF7, Table 4, alkylamino analogues, read-out: MCF-7): > 50 µM |
| COC(=O)CNCCCOc1ccc2cc(NC(=O)c3ccc(O)c(CC=C(C)C)c3)c(=O)oc2c1C [Compound 68l] | – | decreased anti-proliferative activity | – | IC50 [1, 10]: 1.06 ± 0.11 µM; IC50 [3, 11]: 2.82 ± 0.27 µM |
| CC(C)=CCc1cc(C(=O)Nc2cc3ccc(OCCCNCC(=O)O)c(C)c3oc2=O)ccc1O [Compound 68m] | – | decreased anti-proliferative activity | – | IC50 [1, 10]: 7.57 ± 2.86 µM; IC50 [3, 11]: 18.1 ± 5.35 µM |
| CC(C)=CCc1cc(C(=O)Nc2cc3ccc(OCCCNCC(N)=O)c(C)c3oc2=O)ccc1O [Compound 68n] | – | decreased anti-proliferative activity | – | IC50 [1, 10]: 2.29 ± 0.47 µM; IC50 [3, 11]: 1.46 ± 0.35 µM |
| CC(C)=CCc1cc(C(=O)Nc2cc3ccc(OCCCNCCO)c(C)c3oc2=O)ccc1O [Compound 68o] | – | retains activity | – | IC50 [1, 10]: 0.61 ± 0.06 µM; IC50 [3, 11]: 1.56 ± 0.09 µM |
| CC(C)=CCc1cc(C(=O)Nc2cc3ccc(OCCCNc4ccccc4)c(C)c3oc2=O)ccc1O [Compound 70c] | – | inactive | – | IC50 [1, 12]: > 50 µM; IC50 [3, 13]: > 50 µM |
| CC(C)=CCc1cc(C(=O)Nc2cc3ccc(OCCCN(C)c4ccccc4)c(C)c3oc2=O)ccc1O [Compound 70d] | – | inactive | – | IC50 [1, 12]: > 50 µM; IC50 [3, 13]: > 50 µM |
| CC(C)=CCc1cc(C(=O)Nc2cc3ccc(OCCCN(C)Cc4ccccc4)c(C)c3oc2=O)ccc1O [Compound 70h, N-(7-(3-(benzyl(methyl)amino)propoxy)-8-methyl-2-oxo-2H-chromen-3-yl)-4-hydroxy-3-(3-methylbut-2-en-1-yl)benzamide] | – | greatly decreased activity | – | IC50 [1, 14]: 10.7 ± 0.49 µM; IC50 [3, 15]: 11.5 ± 4.16 µM |
| CC(C)=CCc1cc(C(=O)Nc2cc3ccc(OCCCNC45CC6CC(CC(C6)C4)C5)c(C)c3oc2=O)ccc1O [Compound 70j, N-(7-(3-((3S,5S,7S)-adamantan-1-ylamino)propoxy)-8-methyl-2-oxo-2H-chromen-3-yl)-4-hydroxy-3-(3-methylbut-2-en-1-yl)benzamide] | – | good anti-proliferative activity | – | IC50 [1, 14]: 0.31 ± 0.04 µM; IC50 [3, 15]: 0.32 ± 0.03 µM |
| Cc1c(OC2CCN(C)CC2)ccc2cc(NC(=O)Nc3ccccc3)c(=O)oc12 [H, 1-(8-methyl-7-((1-methylpiperidin-4-yl)oxy)-2-oxo-2H-chromen-3-yl)-3-phenylurea] | – | – | – | IC50 [1, 6]: 0.77 µM; increase in inhibition, urea versus amide linkage ([2]; text b189, two breast cancer cell lines): ~15 fold; IC50 [3, 7]: 0.89 µM |
